The record followed here is ChEMBL document CHEMBL5291721, “A preclinical secondary pharmacology resource illuminates target-adverse drug reaction associations of marketed drugs” (Nat Commun, 2023).

Test [1] has as its target T1, Alpha-1A adrenergic receptor (Homo sapiens, UniProt P35348).
T1 sequence (P35348 whole entry): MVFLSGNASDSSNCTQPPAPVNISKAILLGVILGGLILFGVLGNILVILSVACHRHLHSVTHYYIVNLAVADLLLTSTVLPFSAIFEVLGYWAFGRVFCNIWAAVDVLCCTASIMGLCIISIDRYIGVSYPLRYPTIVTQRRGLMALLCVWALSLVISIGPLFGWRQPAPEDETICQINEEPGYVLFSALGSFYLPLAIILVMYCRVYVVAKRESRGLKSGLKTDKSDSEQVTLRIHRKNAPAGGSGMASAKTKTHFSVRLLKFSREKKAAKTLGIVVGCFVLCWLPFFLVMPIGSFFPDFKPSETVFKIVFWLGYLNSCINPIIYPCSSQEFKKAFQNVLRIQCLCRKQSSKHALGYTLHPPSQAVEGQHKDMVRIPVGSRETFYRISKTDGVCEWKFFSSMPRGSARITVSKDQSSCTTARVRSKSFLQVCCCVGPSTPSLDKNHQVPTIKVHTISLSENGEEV

Test [2] concerns the target T2, Alpha-2A adrenergic receptor (Homo sapiens, UniProt P08913).
T2 sequence (P08913 whole entry): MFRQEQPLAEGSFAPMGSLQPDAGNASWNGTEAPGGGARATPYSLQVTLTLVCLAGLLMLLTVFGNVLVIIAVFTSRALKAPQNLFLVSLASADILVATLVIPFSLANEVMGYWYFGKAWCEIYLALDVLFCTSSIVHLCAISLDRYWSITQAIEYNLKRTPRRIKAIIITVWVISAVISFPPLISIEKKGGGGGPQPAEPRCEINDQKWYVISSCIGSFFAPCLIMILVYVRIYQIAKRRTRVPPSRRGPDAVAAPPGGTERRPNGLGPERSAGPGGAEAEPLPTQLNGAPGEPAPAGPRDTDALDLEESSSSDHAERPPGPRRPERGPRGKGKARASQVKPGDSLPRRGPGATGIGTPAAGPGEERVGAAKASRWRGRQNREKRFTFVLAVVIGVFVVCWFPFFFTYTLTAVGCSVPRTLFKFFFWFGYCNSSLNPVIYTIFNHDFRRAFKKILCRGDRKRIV
Format: functional, cell-based.

Test [3] deals with Growth hormone secretagogue receptor type 1 (Homo sapiens, UniProt Q92847).
Sequence of Growth hormone secretagogue receptor type 1 (Q92847 whole entry): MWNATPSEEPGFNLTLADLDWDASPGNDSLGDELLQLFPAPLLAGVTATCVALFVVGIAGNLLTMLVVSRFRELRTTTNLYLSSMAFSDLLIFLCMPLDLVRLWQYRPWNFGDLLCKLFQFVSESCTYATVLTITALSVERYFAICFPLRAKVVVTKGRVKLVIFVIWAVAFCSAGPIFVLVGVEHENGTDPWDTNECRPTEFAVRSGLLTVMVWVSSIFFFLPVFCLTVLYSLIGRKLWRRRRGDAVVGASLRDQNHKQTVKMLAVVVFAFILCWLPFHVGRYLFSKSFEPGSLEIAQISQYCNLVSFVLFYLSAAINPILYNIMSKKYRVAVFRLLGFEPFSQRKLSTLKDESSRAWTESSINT
For test [4], the target named is T3, Progesterone receptor (Homo sapiens, UniProt P06401).
T3 sequence (P06401 whole entry): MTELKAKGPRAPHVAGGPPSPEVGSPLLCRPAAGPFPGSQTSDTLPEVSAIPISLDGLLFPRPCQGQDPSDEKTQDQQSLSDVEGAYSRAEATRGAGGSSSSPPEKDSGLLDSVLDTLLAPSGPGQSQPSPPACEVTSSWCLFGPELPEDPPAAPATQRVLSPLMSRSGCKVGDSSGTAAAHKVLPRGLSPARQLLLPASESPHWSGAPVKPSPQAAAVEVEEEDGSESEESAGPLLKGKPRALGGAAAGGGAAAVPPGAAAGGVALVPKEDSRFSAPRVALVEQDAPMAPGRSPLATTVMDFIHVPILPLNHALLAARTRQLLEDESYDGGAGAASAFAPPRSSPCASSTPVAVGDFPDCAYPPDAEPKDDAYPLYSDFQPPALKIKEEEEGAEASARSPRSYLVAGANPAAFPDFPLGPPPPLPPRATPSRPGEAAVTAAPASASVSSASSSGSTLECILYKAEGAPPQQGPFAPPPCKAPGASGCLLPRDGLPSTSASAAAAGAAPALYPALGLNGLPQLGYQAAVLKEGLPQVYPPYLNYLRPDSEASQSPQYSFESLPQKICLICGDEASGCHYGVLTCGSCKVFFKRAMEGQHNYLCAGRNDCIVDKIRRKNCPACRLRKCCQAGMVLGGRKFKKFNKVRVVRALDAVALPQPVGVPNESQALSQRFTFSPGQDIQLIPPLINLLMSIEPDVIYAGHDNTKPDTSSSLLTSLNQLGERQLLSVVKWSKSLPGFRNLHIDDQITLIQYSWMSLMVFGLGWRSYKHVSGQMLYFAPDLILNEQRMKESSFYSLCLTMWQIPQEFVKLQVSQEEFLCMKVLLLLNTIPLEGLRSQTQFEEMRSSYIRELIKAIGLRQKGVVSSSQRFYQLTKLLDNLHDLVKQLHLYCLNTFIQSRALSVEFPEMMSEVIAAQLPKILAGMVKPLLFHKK

For test [5], the target named is T4, 5-hydroxytryptamine receptor 2B (Homo sapiens, UniProt P41595). Format: functional, cell-based.
T4 sequence (P41595 whole entry): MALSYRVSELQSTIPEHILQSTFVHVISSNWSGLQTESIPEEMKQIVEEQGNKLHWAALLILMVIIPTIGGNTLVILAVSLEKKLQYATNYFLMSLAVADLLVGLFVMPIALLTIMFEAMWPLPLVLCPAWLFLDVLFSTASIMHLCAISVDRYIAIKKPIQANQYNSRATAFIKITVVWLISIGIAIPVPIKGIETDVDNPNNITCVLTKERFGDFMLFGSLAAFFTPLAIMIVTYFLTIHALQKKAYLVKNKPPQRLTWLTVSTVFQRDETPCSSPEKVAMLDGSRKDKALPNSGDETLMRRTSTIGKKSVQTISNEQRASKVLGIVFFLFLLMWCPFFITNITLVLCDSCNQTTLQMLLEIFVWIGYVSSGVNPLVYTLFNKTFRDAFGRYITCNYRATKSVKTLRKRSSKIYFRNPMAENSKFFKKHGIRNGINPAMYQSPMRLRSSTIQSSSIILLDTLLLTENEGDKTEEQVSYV
For test [6], the target named is 5-hydroxytryptamine receptor 2A (Homo sapiens, UniProt P28223). Format: functional, cell-based.
Sequence of 5-hydroxytryptamine receptor 2A (P28223 whole entry): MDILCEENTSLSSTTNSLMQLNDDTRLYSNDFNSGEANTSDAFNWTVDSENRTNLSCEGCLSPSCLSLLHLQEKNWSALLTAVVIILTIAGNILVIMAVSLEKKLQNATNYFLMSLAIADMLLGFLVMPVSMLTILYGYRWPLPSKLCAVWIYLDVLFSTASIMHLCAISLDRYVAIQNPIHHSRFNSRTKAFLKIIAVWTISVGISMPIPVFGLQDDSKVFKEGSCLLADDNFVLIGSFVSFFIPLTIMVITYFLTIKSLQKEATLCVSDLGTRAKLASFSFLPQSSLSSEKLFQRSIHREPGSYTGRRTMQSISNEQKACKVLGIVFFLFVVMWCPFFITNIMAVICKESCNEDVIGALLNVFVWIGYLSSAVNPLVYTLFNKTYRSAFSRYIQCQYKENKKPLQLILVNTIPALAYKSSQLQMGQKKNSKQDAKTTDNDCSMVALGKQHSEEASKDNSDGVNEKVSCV
In test [7] the target is T3, Progesterone receptor. The class given is functional.
The target of test [8] is T3, Progesterone receptor. Format: functional. The source holds these as a separate data set.
The target in test [9] is T4, 5-hydroxytryptamine receptor 2B.
Test [10] deals with T5, Corticotropin-releasing factor receptor 2 (Homo sapiens, UniProt Q13324).
T5 sequence (Q13324 whole entry): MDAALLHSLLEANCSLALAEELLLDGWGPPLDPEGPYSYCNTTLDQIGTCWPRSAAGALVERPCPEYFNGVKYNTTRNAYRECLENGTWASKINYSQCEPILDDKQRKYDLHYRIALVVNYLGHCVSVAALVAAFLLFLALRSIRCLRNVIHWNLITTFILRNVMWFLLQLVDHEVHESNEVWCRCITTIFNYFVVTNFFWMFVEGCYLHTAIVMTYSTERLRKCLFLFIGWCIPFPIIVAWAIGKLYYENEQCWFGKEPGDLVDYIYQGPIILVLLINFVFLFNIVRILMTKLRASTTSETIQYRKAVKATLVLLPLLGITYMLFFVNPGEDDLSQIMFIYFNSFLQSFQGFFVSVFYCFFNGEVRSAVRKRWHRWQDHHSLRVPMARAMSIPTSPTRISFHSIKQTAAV

Test [11] deals with Voltage-dependent N-type calcium channel subunit alpha-1B (Rattus norvegicus, UniProt Q02294). Format: functional.
Sequence of Voltage-dependent N-type calcium channel subunit alpha-1B (Q02294 whole entry): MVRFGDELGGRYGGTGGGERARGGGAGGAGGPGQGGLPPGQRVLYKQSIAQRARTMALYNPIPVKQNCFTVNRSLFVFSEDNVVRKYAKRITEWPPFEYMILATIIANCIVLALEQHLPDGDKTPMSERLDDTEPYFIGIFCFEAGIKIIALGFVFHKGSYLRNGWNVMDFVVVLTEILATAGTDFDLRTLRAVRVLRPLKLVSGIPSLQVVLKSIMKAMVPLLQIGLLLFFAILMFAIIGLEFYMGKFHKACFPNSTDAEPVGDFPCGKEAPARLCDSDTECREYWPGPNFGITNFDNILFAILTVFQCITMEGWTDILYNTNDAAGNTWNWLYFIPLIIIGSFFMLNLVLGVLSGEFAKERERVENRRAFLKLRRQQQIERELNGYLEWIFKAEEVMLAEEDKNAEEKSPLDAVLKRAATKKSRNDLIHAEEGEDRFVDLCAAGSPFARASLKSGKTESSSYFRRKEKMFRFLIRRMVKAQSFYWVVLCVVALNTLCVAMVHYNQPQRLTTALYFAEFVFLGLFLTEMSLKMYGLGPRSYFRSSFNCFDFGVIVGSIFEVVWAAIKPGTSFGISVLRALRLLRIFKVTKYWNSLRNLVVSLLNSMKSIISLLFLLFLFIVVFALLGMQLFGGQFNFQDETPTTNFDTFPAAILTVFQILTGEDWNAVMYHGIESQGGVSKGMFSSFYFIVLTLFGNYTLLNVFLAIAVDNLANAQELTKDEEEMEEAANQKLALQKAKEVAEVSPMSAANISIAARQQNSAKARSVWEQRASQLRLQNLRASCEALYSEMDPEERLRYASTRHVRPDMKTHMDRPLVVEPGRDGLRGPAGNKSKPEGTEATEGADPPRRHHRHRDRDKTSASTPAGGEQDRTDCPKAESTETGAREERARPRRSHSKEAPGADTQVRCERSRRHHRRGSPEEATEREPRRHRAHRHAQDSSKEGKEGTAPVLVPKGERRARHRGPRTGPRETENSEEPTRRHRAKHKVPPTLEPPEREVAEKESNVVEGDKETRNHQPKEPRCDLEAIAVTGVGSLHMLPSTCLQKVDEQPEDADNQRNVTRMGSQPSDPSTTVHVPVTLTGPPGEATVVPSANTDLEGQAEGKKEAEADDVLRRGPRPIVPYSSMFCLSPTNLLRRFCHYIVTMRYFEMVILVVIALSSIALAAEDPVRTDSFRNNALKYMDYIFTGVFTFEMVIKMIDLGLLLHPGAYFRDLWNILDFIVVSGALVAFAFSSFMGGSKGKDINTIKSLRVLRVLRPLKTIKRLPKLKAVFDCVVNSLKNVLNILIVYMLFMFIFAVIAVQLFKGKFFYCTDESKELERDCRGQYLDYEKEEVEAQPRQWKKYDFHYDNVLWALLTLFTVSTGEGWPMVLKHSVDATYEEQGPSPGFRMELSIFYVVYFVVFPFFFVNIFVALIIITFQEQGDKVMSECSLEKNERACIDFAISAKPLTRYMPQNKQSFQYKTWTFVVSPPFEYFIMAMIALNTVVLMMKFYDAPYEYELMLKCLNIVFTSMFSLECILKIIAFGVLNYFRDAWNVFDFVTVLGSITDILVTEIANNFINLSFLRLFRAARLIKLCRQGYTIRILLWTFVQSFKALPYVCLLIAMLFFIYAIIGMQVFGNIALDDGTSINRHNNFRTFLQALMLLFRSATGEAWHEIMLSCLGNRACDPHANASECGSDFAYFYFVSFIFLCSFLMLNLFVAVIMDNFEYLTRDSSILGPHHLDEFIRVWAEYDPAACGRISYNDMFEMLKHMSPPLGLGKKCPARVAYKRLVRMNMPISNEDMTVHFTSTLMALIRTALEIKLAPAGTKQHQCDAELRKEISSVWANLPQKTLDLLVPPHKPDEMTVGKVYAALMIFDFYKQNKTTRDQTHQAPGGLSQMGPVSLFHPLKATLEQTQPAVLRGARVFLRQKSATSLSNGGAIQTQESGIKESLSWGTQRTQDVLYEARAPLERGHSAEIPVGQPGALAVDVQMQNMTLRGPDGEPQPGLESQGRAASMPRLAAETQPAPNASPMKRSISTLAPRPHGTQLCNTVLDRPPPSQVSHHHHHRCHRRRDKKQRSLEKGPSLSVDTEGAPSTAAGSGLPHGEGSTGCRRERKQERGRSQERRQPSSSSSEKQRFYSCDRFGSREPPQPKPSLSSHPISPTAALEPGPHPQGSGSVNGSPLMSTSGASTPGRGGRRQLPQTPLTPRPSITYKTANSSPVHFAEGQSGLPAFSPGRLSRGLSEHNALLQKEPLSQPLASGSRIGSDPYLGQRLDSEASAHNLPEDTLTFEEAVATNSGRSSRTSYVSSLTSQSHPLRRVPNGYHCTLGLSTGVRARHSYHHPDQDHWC
Note: assay procedure not described here.

In the case of `O=C1CN2Cc3c(ccc(Cl)c3Cl)N=C2N1` [ANAGRELIDE], the AC50 in [1] was > 10 µM; in test [2], > 10 µM; in test [3], > 30 µM; on Progesterone receptor [4] it was > 30 µM; in test [5], > 10 µM; in test [6], > 30 µM.

For the compound `CCc1oc2ccccc2c1C(=O)c1cc(Br)c(O)c(Br)c1` [BENZBROMARONE], the AC50 was > 10 µM in [1]; > 30 µM in test [2]; > 30 µM in test [3]; > 30 µM at Progesterone receptor [7]; > 30 µM at Progesterone receptor [4]; > 30 µM in test [5]. The same compound gave an AC50 on Progesterone receptor [8] of 3.8 µM.

On to `[H]/N=C(\N/C(=N/[H])NCCCCCCNC(=N)NC(=N)Nc1ccc(Cl)cc1)Nc1ccc(Cl)cc1` [CHLORHEXIDINE], for which the AC50 in test [1] is 0.607 µM; in [2], > 30 µM; in test [3], 1 µM; on Progesterone receptor [7], > 30 µM; in [5], > 30 µM; in [9] it was 0.683 µM. Also, the figures for the AC50 (on Progesterone receptor [8]; in test [6]) were 21.9 µM and 1.83 µM, respectively.

Take `Clc1cccc(Cl)c1N=C1NCCN1` [CLONIDINE]: the AC50 in [3] was > 30 µM; in test [10] it was > 30 µM; at Progesterone receptor [4], > 30 µM; in test [5], > 10 µM; in test [11] it was > 10 µM; in [9] it was > 10 µM.

Turning to `CN1C[C@H](C(=O)N[C@]2(C)O[C@@]3(O)[C@@H]4CCCN4C(=O)[C@H](Cc4ccccc4)N3C2=O)C[C@@H]2c3cccc4[nH]cc(c34)C[C@H]21` [DIHYDROERGOTAMINE], the AC50 in test [1] is 0.0376 µM; in test [3], 4.39 µM; in test [10], > 30 µM; at Progesterone receptor [4], > 30 µM; in test [5], 2.77 µM; in [11] it was > 10 µM. In [9], this compound came in with an AC50 of 0.0638 µM.

Consider `CNCC[C@H](Oc1cccc2ccccc12)c1cccs1` [DULOXETINE], for which the AC50 is > 10 µM in [2], 14.7 µM in test [3], > 30 µM at Progesterone receptor [4] and > 10 µM in test [5].

In the case of `Cc1cnc(NC(=O)C2=C(O)c3ccccc3S(=O)(=O)N2C)s1` [MELOXICAM], the AC50 was > 10 µM in test [1]; > 10 µM in test [2]; > 30 µM in test [3]; > 30 µM in [10]; > 30 µM on Progesterone receptor [4]; > 10 µM in [5]. The AC50 in [11] and in test [9] was > 10 µM throughout.

For `CC[C@@H](CO)NC(=O)[C@@H]1C=C2c3cccc4[nH]cc(c34)C[C@H]2N(C)C1` [METHYLERGONOVINE], the AC50 is 12 µM in [1]; > 30 µM in [2]; > 30 µM in [3]; > 30 µM at Progesterone receptor [7]; 0.0257 µM in [5]; 0.0037 µM in test [9].

Consider `COc1ccnc(C[S+]([O-])c2nc3ccc(OC(F)F)cc3[nH]2)c1OC` (centres undefined) [PANTOPRAZOLE], for which the AC50 is 10.6 µM in test [1]; > 10 µM in test [2]; > 30 µM in test [3]; > 30 µM in test [10]; > 30 µM at Progesterone receptor [4]; > 10 µM in [5]. In addition, the AC50 in [11] and in test [9] was > 10 µM each time.

`CNC[C@H](O)c1cccc(O)c1` [PHENYLEPHRINE]: the AC50 in test [3] was > 30 µM; in test [10], > 30 µM; on Progesterone receptor [4], > 30 µM; in test [5] it was > 30 µM; in test [11], > 10 µM; in test [9] it was > 10 µM. Further, the concentration at half-maximal activity (AC50) in [6] is > 30 µM.

As to `O=C1NC(=O)C(c2ccccc2)(c2ccccc2)N1` [PHENYTOIN], the AC50 in [1] was > 10 µM; in [2], > 30 µM; in [3], > 30 µM; in test [10] it was > 30 µM; at Progesterone receptor [7], > 30 µM; at Progesterone receptor [4], > 30 µM. In addition, the AC50 in test [5] is > 30 µM; in [11], > 10 µM; at Progesterone receptor [8], > 30 µM.

Turning to `CC(C)C[C@H](CN)CC(=O)O` [PREGABALIN], the AC50 in [2] was > 30 µM; in [3] it was > 30 µM; in [10], > 30 µM; at Progesterone receptor [7] it was > 30 µM; on Progesterone receptor [4], 20.2 µM; in test [5], 28 µM. The AC50 in test [11] is > 10 µM; on Progesterone receptor [8], > 30 µM; in [6], > 30 µM.

On to `CC(C)N(CCCCOCC(=O)NS(C)(=O)=O)c1cnc(-c2ccccc2)c(-c2ccccc2)n1` [SELEXIPAG], for which the AC50 in test [1] was > 10 µM; in test [2], > 30 µM; in [3], > 30 µM; at Progesterone receptor [7], > 30 µM; in [5], > 30 µM; on Progesterone receptor [8], > 30 µM. In addition, half-maximal activity in [6] (AC50) was put at 16 µM.

As to `CC(=O)S[C@@H]1CC2=CC(=O)CC[C@]2(C)[C@H]2CC[C@@]3(C)[C@@H](CC[C@@]34CCC(=O)O4)[C@H]12` [SPIRONOLACTONE], the AC50 was 10.4 µM in test [1]; > 30 µM in test [2]; > 30 µM in [3]; > 30 µM in test [10]; > 30 µM in test [5]; > 10 µM in test [11]. Further, in test [9], the AC50 was > 10 µM.

For the compound `CCCCNc1ccc(C(=O)OCCN(C)C)cc1` [TETRACAINE], the concentration at half-maximal activity (AC50) is > 10 µM in [1]; > 10 µM in [2]; > 30 µM in [3]; > 30 µM in test [10]; > 30 µM at Progesterone receptor [4]; > 10 µM in test [5]. Also, the half-maximal activity concentration (AC50) is > 10 µM in test [11] and 1.42 µM in test [9].

For the compound `Cn1c(=O)c2[nH]cnc2n(C)c1=O` [THEOPHYLLINE], the AC50 is > 10 µM in test [1]; > 10 µM in test [2]; > 30 µM in test [3]; > 30 µM in [10]; > 30 µM on Progesterone receptor [4]; > 10 µM in test [5]. In addition, in test [11], the AC50 was > 10 µM.

By AC50 is commonly meant the concentration at which the activity in the assay is half-maximal.
